Assays:
[1] = Nitric oxide radical scavenging activity at 0.1 mg/ml; assay type: functional
[2] = DPPH radical scavenging activity at 0.1 mg/ml; assay type: functional

SMILES	Activity [1] [%]	Activity [2] [%]
COc1cc2c(c(O)c1C)C(=O)Nc1ccc(O)cc1O2	59	–
COc1cc2c(c(OC)c1C)C(=O)Nc1ccc(O)c(C)c1O2	63	25
O=C1O[C@H]([C@@H](O)CO)C(O)=C1O	66	–
